Entries after “also recorded” stand apart in the source; their conditions may differ.
Experiments:
RYBP = experiment: Western blot of RYBP expression in retrovirally infected BMMs; format: cell-based, mouse; conditions: BMMs infected with retrovirus expressing siRNA; anti-RYBP Western blot
Procedure: Western blot analysis was performed as previously described (Xu et al., 2006; Liu et al., 2004). RAW264.7 cells cultured in DMEM containing 10% HI-FBS and penicillin/streptomycin were treated with RANKL (100 ng/ml) for various times before being lysed for Western blot analysis with anti-RYBP antibody from Abcam Inc (Cambridge, Mass.). Primary BMMs were normally cultured in α-MEM containing 10% HI-FBS and penicillin/streptomycin in the presence of M-CSF (44 ng/ml). Uninfected BMMs or BMMs infected with retrovirus encoding siRNA and/or tagged-RYBP were cultured in the presence of M-CSF (44 ng/ml) with or without RANKL (100 ng/ml) for various times and then lysed for Western blot analysis. For Western blot analysis of IP complex, all 35 μl of the eluted proteins from each IP assay was loaded for Western blot analysis with anti-HA antibody (Clontech Laboratories, Inc), anti-Myc antibody (Clontech Laboratories, Inc), anti-RYBP (Abcam Inc) antibody and anti-β-actin antibody (Santa Cruz Biotechnology).
293GPG cells were cultured in DMEM with 10% HI-FBS supplemented with tetracycline, puromycin, G418 and penicillin/streptomycin as previously described {2222). Plat-E cells were cultured in DMEM with 10% HI-FBS supplemented with puromycin, blasticidin and penicillin/streptomycin as previously described {Morita, 2000 3155/id}. […]

primary BMMs = experiment: In vitro osteoclastogenesis assay (TRAP staining); format: cell-based, mouse; conditions: TRAP stain
Procedure: Primary BMMs were cultured in 24-well tissue culture plates (5×10^4 cells/well) with a-MEM containing 10% heat-inactivated FBS in the presence of 0.02 volume of culture supernatant of M-CSF-producing cells (final M-CSF concentration 44 ng/ml) (Takeshita et al., 2000) and 100 ng of GST-RANKL (Lam et al., 2000). […]
293GPG cells were cultured in DMEM with 10% HI-FBS supplemented with tetracycline, puromycin, G418 and penicillin/streptomycin as previously described {2222). Plat-E cells were cultured in DMEM with 10% HI-FBS supplemented with puromycin, blasticidin and penicillin/streptomycin as previously described {Morita, 2000 3155/id}. The retroviral vectors were transiently transfected into 293GPG cells or Plat-E cells using Lipofectamine Plus Reagent (Invitrogen). Virus supernatant was collected at 48, 72 and 96 h after transfection. Cells were then infected with virus for 24 hours in the presence of M-CSF (220 ng/ml) and 8 μg/ml polybrene. Cells were further cultured in the presence of M-CSF (220 ng/ml) and 2 μg/ml puromycin for selection and expansion of transduced cells. Selected cells were subsequently used for various studies.
A scrambled siRNA sequence was designed to use as control (FIG. 3A). BMMs were uninfected or infected with retrovirus expressing scrambled RNA or RYBP siRNA. […]

[1] = molecular target: T1, 49-aa RANK segment (residues 498-546) containing the IVVY motif (Mus musculus, UniProt O35305); experiment: Two-hybrid screen of osteoclast precursor cDNA library; format: binding; conditions: yeast AH109, medium stringency
T1 construct: expressed in transfected cells; host or cells: yeast strain AH109
T1 sequence (O35305 498-546): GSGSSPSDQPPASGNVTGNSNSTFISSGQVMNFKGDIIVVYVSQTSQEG
Excerpt: An osteoclast precursor cDNA library was constructed using CloneMiner™ cDNA Library Construction System from Invitrogen (Carlsbad, Calif.). Briefly, mRNA was isolated from mouse primary BMMs and used as template for cDNA synthesis. Synthesized cDNA was size fractionated by column chromatography and the desired size of cDNA (>500 bp) was pooled and cloned into pDONOR™222 vector with BP Clonase™ to make Osteoclast Precursor cDNA Entry Library. pGBKT7 AD Vector of MATCHMAKER Two-Hybrid System 3 (Invitrogen) was converted to a Gateway® destination vector using Gateway® Vector Conversion System (Invitrogen). The whole set of cDNA clones was then transferred from the Osteoclast Precursor cDNA Entry Library into the modified pGBKT7 AD Vector to prepare an Osteoclast Precursor Two-Hybrid cDNA Library.
A 49-aa RANK segment (residues 498-546) containing the IVVY (SEQ ID NO: 4) motif (residues 535-538) was used as bait in the two-hybrid screening. A mouse cDNA region encoding this 49-aa RANK fragment was cloned in frame into pGBKT7 DNA-BD Vector of the MATCHMAKER Two-Hybrid System 3 (Invitrogen). The resulting plasmid was named as pGBKT7 DNA-BD-RANK. […]

With “RYBP siRNA: retrovirally expressed siRNA targeting the RYBP mRNA region encoding DPPSEA (AGCUUCACUAGGAGGAUCU)” the RYBP expression (RYBP) was “significantly suppressed RYBP expression; also recorded: dramatically knocked down endogenous RYBP expression” and the osteoclastogenesis (primary BMMs; infected BMMs treated with M-CSF (44 ng/ml) and RANKL (100 ng/ml) for 4 days) was “inhibited osteoclastogenesis”.

B1: RYBP-HA: WT RYBP with HA tag at C-terminus, siRNA target region silently mutated (protein, UniProt Q8N488 1-228, looked up)
RING1 and YY1-binding protein: MTMGDKKSPTRPKRQAKPAADEGFWDCSVCTFRNSAEAFKCSICDVRKGTSTRKPRINSQLVAQQVAQQYATPPPPKKEKKEKVEKQDKEKPEKDKEISPSVTKKNTNKKTKPKSDILKDPPSEANSIQSANATTKTSETNHTSRPRLKNVDRSTAQQLAVTVGNVTVIITDFKEKTRSSSTSSSTVTSSAGSEQQNQSSSGSESTDKGSSRSSTPKGDMSAVNDESF
modifications: C-terminal HA tag
notes: WT RYBP with HA tag at C-terminus, siRNA target region silently mutated
In the case of B1, the rescue of osteoclastogenesis (primary BMMs; BMMs co-infected with RYBP siRNA retrovirus, M-CSF and RANKL 4 days) is reported as “effectively rescued osteoclastogenesis”.

B2: RYBP: RING1A and YY1 binding protein, amino acid sequence SEQ ID NO:2 (protein, listed as Mus sp.)
chain: MTMGDKKSPTRPKRQAKPAADEGFWDCSVCTFRNSAEAFKCSICDVRKGTSTRKPRINSQLVAQQVAQQYATPPPPKKEKKEKVEKPDKEKPEKDKDISPSVTKKNTNKKTKPKSDILKDPPSEANSIQSANATTKTSETNHTSRPRLKNVDRSTAQQLAVTVGNVTVIITDFKEKTRSSSTSSSTVTSSAGSEQQNQSSSGSESTDKGSSRSSTPKGDMSAVNDESF
B2 was tested, and the “affinity for the bait (time a clone takes to become blue)” value [1] was “highest affinity for the bait”.

— patent US8765908B2, “Compositions for improving bone mass” (The UAB Research Foundation, priority 2010, dated 2014)
